Experiments:
[1] = target: HDAC1 enzyme (recombinant GST-HDAC1) (Homo sapiens (Human), UniProt Q13547); test: In vitro HDAC assay for determination of IC50 values (BIOMOL fluorescent-based HDAC activity assay); type: biochemical; conditions: Flur de lys substrate, 2 h room temperature, read-out: IC50 (HDAC 1)
Summary of the method: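 Recombinant human GST-HDAC1, baculovirus-expressed in SF9 cells and glutathione-purified, tested with a fluorogenic deacetylase substrate; Fluor de Lys developer added for 10 min. Fluorescence at 360 nm excitation/460 nm emission; IC50 fitted from a concentration series.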

[2] = test system: acetylated histone H3 in Colo205 cells; test: Histone acetylation assay (immuno-blotting with acetylated histone H3 antibody); type: cell-based, human; conditions: 10 μM, 24 h, western blot
Experimental: Histone Acetylation Assay
A hallmark of histone deacetylase (HDAC) inhibition is the increase in the acetylation level of histones. Histone acetylation, including H3, H4 and H2A can be detected by immuno-blotting (western-blot). Colo205 cells, approximately 5×10^5 cells, were seeded in the previously described medium, cultivated for 24 h and subsequently treated with HDAC inhibitory agents and a positive control at 10 μM final concentration. After 24 h, cells were harvested and lysed according to the instruction from Sigma Mammalian Cell Lysis Kit. The protein concentration was quantified using BCA method (Sigma Pte Ltd). The protein lysate was separated using 4-12% bis-tris SDS-PAGE gel (Invitrogen Pte Ltd) and was transferred onto PVDF membrane (BioRad Pte Ltd). The membrane was probed using primary antibody specific for acetylated histone H3 (Upstate Pte Ltd). The detection antibody, goat anti rabbit antibody conjugated with HRP was used according to the manufacturing instruction (Pierce Pte Ltd). After removing the detection antibody from the membrane, an enhanced chemiluminescent substrate for detection of HRP (Pierce Pte Ltd) was added onto the membrane. After removing the substrate, the membrane was exposed to an X-ray film (Kodak) for 1 sec-20 mins. The X-ray film was developed using the X-ray film processor. The density of each band observed on the developed film could be qualitatively analysed using UVP Bioimaging software (UVP, Inc, Upland, Calif.). The values were then normalized against the density of actin in the corresponding samples to obtain the expression of the protein.
The results of immuno-blotting assay using acetylated histone H3 antibody are shown in Table 5 for representative compounds of this invention.

[3] = test system: Colo205 cells; test: Cell-based proliferation assay for determination of GI50 values (CyQUANT); parameters: species or system human; conditions: Homo sapiens, COLO 205, 96 h treatment
Summary of the method: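 Colo205 cells in RPMI 1640 with 5% FBS, seeded 5000/well and grown 24 h at 37 °C. Exposure to compound lasted 96 h, with growth read by CyQUANT. GI50 = concentration giving 50% growth inhibition, from dose-response curves.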

Sequence of HDAC1 enzyme (recombinant GST-HDAC1) (Q13547 whole entry): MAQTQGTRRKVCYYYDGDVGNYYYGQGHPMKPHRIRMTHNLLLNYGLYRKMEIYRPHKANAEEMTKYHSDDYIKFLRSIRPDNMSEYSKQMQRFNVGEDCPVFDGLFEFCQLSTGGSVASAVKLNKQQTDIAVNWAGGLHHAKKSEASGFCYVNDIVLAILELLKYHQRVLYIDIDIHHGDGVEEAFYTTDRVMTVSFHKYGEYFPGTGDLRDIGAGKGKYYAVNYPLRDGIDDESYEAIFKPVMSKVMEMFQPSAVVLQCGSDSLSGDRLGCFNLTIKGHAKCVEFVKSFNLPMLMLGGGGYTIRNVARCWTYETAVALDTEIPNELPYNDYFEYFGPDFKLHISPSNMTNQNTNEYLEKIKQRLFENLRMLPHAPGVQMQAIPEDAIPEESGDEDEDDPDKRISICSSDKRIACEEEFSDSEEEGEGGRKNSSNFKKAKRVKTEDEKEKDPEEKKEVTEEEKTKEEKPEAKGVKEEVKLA

| SMILES | IC50 [1] [nM] | Histone acetylation activities (Histone-3) [2] | GI50 [3] [nM] |
| --- | --- | --- | --- |
| CC(C)(C)NCc1c(-c2ccccc2)nc2cc(/C=C/C(=O)NO)ccn12 [Compound 45, 3-[3-(tert-Butylamino-methyl)-2-phenyl-imidazo[1,2-a]pyridin-7-yl]-N-hydroxy-acrylamide] | 45 | active | 260 |
| CCCCNCc1c(C(C)(C)C)nc2cc(/C=C/C(=O)NO)ccn12 [Compound 49, 3-(2-tert-Butyl-3-butylaminomethyl-imidazo[1,2-a]pyridin-7-yl)-N-hydroxy-acrylamide] | 160 | active | 590 |
| CCCCNCc1c(-c2ccccc2)nc2cc(/C=C/C(=O)NO)ccn12 [Compound 39, 3-(3-Butylaminomethyl-2-phenyl-imidazo[1,2-a]pyridin-7-yl)-N-hydroxy-acrylamide] | 160 | active | 440 |
| O=C(/C=C/c1ccn2c(CN3CCCC3)c(-c3ccccc3)nc2c1)NO [Compound 60, N-Hydroxy-3-(2-phenyl-3-pyrrolidin-1-ylmethyl-imidazo[1,2-a]pyridin-7-yl)-acrylamide] | 84 | active | 480 |
| CCCCNCc1c(-c2ccc(F)cc2)nc2cc(/C=C/C(=O)NO)ccn12 [Compound 63, 3-[3-Butylaminomethyl-2-(4-fluoro-phenyl)-imidazo[1,2-a]pyridin-7-yl]-N-hydroxy-acrylamide] | 63 | active | 540 |
| CCCN(C)Cc1c(-c2ccccc2)nc2cc(C=CC(=O)NO)ccn12 [Compound 40, N-Hydroxy-3-{3-[(methyl-propyl-amino)-methyl]-2-phenyl-imidazo[1,2-a]pyridin-7-yl}-acrylamide] | 240 | active | 790 |
| CC(C)(C)NCc1c(-c2ccc(F)cc2)nc2cc(/C=C/C(=O)NO)ccn12 [Compound 64, 3-[3-(tert-Butylamino-methyl)-2-(4-fluoro-phenyl)-imidazo[1,2-a]pyridin-7-yl]-N-hydroxy-acrylamide] | 51 | active | 270 |
| CCN(CCC(C)(C)C)Cc1c(C)nc2cc(/C=C/C(=O)NO)ccn12 [Compound 125, 3-(3-{[(3,3-Dimethyl-butyl)-ethyl-amino]-methyl}-2-methyl-imidazo[1,2-a]pyridin-7-yl)-N-hydroxyacrylamide] | 50 |  | 160 |
| CCCCCCc1nc2cc(/C=C/C(=O)NO)ccn2c1NCCC(=O)NCC(F)(F)F [Compound 23, 3-{2-Hexyl-3-[2-(2,2,2-trifluoro-ethylcarbamoyl)-ethylamino]-imidazo[1,2-a]pyridin-7-yl}-N-hydroxy-acrylamide] | 160 |  | 15000 |

— US8648092B2, “Imidazo[1,2-a]pyridine derivatives: preparation and pharmaceutical applications” (MEI Pharma, priority 2005, dated 2014)
